Read-outs that look alike come from different tables or passages of the source.
Columns and labels:
[1] = target: recombinant P. fluorescens kynurenine 3-monooxygenase (PfKMO) (Pseudomonas fluorescens, UniProt Q84HF5, C252S/C461S); assay: biochemical
Method: Protein was expressed by growing transformed cells in auto induction LB medium (Fermentas) containing 100 μg/mL for 24 hours at 22° C. […] The cell lysate was centrifuged at 180,000 g for 1 hour at 4° C. to remove cell debris. The soluble cell lysate was loaded onto Q-sepharose column equilibrated with anion exchange buffer (20 mM HEPES pH 7.5, 1 mM DTT with 10 mM NaCl) and bound protein was eluted with a gradient (5 column volumes) of increasing NaCl concentration from 50 to 100 mM in anion exchange buffer. Fractions containing KMO were pooled and precipitated in 50% saturated ammonium sulphate by adding precipitation buffer (20 mM HEPES pH 7.5, 3 M ammonium sulphate, 1 mM DTT). The precipitated protein was pelleted by centrifugation at 12,000 g for 20 min, resuspended in a small volume of size exclusion buffer (20 mM HEPES pH 7.0, 150 mM sodium acetate, 1 mM DTT) and passed down a Superdex 75 column. Pure PfKMO was pooled and stored at −80° C.
(§1) KMO activity was measured in the presence of a range of compound concentrations by monitoring the consumption of NADPH at 340 nm upon addition of enzyme via a Cary 50 UV-Vis spectrophotometer (Agilent Technologies). All measurements were performed in triplicate. The IC50 values for each compound were obtained by plotting the percentage inhibition versus the inhibitor concentration and fitting to the Morrison equation using Origin 9.0 software (OriginLab, Northampton, Mass.).

[2] = target: T1, recombinant Homo Sapiens kynurenine 3-monooxygenase (HsKMO) (Homo sapiens, UniProt O15229); assay: Inhibition of recombinant Homo sapiens KMO (NADPH consumption at 340 nm); format: biochemical; details: 0.5 μM HsKMO, L-Kyn 250 μM, NADPH 200 μM, pH 8.0, triplicate
T1 construct: The gene encoding full-length human KMO was synthesized; glutathione S-transferase (GST; vector pAcGHLT-A); made in house; host or cells: Hi5 insect cells (baculovirus)
T1 sequence (O15229 whole entry): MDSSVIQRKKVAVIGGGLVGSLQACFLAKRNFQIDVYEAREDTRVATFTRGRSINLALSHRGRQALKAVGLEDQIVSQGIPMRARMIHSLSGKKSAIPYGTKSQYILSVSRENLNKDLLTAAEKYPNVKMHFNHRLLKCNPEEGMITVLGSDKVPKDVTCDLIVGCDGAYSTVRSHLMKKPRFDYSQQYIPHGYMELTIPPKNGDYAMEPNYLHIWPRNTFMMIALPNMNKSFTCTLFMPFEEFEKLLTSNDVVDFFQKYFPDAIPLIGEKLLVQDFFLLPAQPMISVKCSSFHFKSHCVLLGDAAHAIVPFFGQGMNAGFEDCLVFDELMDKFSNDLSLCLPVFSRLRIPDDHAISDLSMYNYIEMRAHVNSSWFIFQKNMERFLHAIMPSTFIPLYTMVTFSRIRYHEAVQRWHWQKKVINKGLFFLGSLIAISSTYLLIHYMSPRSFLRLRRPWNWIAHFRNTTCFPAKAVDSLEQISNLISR
Method: The gene encoding full-length human KMO was synthesized (GeneScript) and codon optimized for overexpression in […]. The gene was subcloned into the baculovirus transfer vector pAcGHLT-A-glutathione S-transferase as a Ndel-EcoRI fragment and transfected into Hi5 cells along with linearized baculovirus using the following sense and antisense primers: […]
Cultured cells were lysed in 20 mM potassium phosphate buffer, pH 7.5, 10% glycerol, 0.5% n-dodecyl β-D-maltoside (DDM), 150 mM NaCl, 7 mM 2-mercaptoethanol and 50 μM FAD supplemented with protease inhibitors (Sigma-Aldrich). Soluble lysate was incubated with 3 ml pre-equilibrated glutathione uniflow resin (Clontech). […] Fractions (0.5 ml) were eluted with buffer C (buffer B+33 mM glutathione) and fractions containing KMO pooled, concentrated and loaded onto a Superdex 200 (10/30) size-exclusion chromatography column. Pure KMO was pooled and stored at −80° C.
as §1

KMO = details: literature value; read-out: IC50 (KMO inhibition); cited from earlier work

Sequence of recombinant P. fluorescens kynurenine 3-monooxygenase (PfKMO) (Q84HF5 whole entry C252S/C461S): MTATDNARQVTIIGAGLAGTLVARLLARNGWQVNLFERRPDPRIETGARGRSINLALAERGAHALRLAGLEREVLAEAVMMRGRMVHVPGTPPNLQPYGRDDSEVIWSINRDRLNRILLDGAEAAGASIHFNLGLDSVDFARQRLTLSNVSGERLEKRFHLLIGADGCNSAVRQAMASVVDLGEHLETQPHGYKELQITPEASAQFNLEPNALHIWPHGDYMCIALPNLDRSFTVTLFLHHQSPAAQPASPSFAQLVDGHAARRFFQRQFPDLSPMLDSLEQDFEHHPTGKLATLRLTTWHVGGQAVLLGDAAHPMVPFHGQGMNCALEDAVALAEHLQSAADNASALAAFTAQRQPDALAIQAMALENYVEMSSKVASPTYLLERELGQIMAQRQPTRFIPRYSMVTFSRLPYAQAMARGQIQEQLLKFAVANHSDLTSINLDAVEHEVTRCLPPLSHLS

Which results are given for `COC(=O)CN1C(=O)COc2cc(C)c(Cl)c(C)c21` [Example 1, methyl 2-(6-chloro-5,7-dimethyl-3-oxo-1,4-benzoxazin-4-yl)acetate]?
IC50 [1]: > 100 µM; IC50 [2]: > 100 µM

For `NC(CC(=O)c1ccc(Cl)c(Cl)c1)C(=O)O` (racemic) [(R,S)-3,4-dichlorobenzoylalanine], which IC50 (KMO) is on record?
Its IC50 is 0.9 µM.

For `CNC(=O)CN1C(=O)COc2cc(C)c(Cl)c(C)c21` [Example 7], which IC50 [1] is on record?
The IC50 was over 100 µM.

And the IC50 [2]?
The IC50 was over 100 µM.

For `Cc1cc2c(c(C)c1Cl)N(CC(N)=O)C(=O)CO2` [Example 8, 2-(6-chloro-5,7-dimethyl-3-oxo-1,4-benzoxazin-4-yl)acetamide], which IC50 [1] is on record?
Its IC50 is over 100 µM.

And the IC50 [2]?
The IC50 was over 100 µM.

For `O=C(O)[C@H]1C[C@@H]1C(=O)c1ccc(Cl)c(Cl)c1` [UPF-648], which IC50 (KMO) is on record?
The IC50 was 0.02 µM.

For `Cc1cc2c(c(C)c1Cl)N(CC(=O)OC(C)C)C(=O)CO2` [Example 3, isopropyl 2-(6-chloro-5,7-dimethyl-3-oxo-1,4-benzoxazin-4-yl)acetate], which IC50 [1] is on record?
Its IC50 is over 100 µM.

And the IC50 [2]?
Its IC50 is over 100 µM.

For `Cc1cc2c(c(C)c1Cl)N(CC(=O)N(C)C)C(=O)CO2` [Example 6, 2-(6-chloro-5,7-dimethyl-3-oxo-1,4-benzoxazin-4-yl)-N,N-dimethyl-acetamide], which IC50 [1] is on record?
The IC50 was over 100 µM.

What about the IC50 [2] of the same compound?
The IC50 was over 100 µM.

Which IC50 ([1]; read-out: IC50 for PfKMO inhibition, 0.1 μM PfKMO, L-Kyn 250 μM, NADPH 200 μM, pH 7.5, triplicate) does the source give for `Cc1cc2c(c(C)c1Cl)N(Cc1nn[nH]n1)C(=O)CO2` [Example 9, 6-chloro-5,7-dimethyl-4-(2H-tetrazol-5-ylmethyl)-1,4-benzoxazin-3-one] here?
The IC50 was 17 µM.

What about the IC50 [2] of the same compound?
The IC50 was 1.28 µM.

Which results are given for `CCOC(=O)CN1C(=O)COc2cc(C)c(Cl)c(C)c21` [Example 2, ethyl 2-(6-chloro-5,7-dimethyl-3-oxo-1,4-benzoxazin-4-yl)acetate]?
IC50 [1]: > 100 µM; IC50 [2]: > 100 µM

Which results are given for `Cc1cc2c(c(C)c1Cl)N(CC(=O)OC(C)(C)C)C(=O)CO2` [Example 4, tert-butyl 2-(6-chloro-5,7-dimethyl-3-oxo-1,4-benzoxazin-4-yl)acetate]?
IC50 [1]: > 100 µM; IC50 [2]: > 100 µM

— patent US20200345745A1 (University of Leicester, priority 2017, published 2020)
